The target of this experiment is T1, His-Cbl(TKB) (Homo sapiens, UniProt P22681).
T1 sequence (P22681 47-351 limits assumed): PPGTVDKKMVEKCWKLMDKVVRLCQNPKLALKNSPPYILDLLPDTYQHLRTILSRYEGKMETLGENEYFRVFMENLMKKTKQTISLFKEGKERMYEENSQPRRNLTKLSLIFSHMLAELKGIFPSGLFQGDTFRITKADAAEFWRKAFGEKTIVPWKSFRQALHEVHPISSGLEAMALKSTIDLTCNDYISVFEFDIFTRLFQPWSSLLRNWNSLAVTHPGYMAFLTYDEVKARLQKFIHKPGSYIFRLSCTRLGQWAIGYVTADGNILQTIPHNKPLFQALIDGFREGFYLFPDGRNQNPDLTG
The experiment can be described thus: Competitive FP assay, displacement of labeled ZAP70 peptide 1 from His-Cbl. As to conditions: 100 nM labeled peptide 1. In kind it is binding.

Each structure is given as a SMILES string.

As for `CC(=O)N[C@H](C(=O)N[C@@H](CC(C)C)C(=O)N[C@@H](CC(N)=O)C(=O)N[C@@H](CO)C(=O)N[C@@H](CC(=O)O)C(=O)NCC(=O)N[C@@H](Cc1ccc(OP(=O)(O)O)cc1)C(=O)N[C@H](C(=O)N1CCC[C@H]1C(=O)N[C@@H](CCC(=O)O)C(=O)N1CCC[C@H]1C(=O)N[C@@H](C)C(N)=O)[C@@H](C)O)[C@@H](C)O` [ZAP70 peptide 2, Ac-TLNSDGpYTPEPA-CONH2], the “ΔmP (competition)” value is, setting by setting: (0.3 μM His-Cbl(TKB)) “do not give measureable IC50 or ΔmP values”; (1.25 μM His-Cbl(TKB)) “do not give measureable IC50 or ΔmP values”; (5 μM His-Cbl(TKB)) 52.5 mP; (9 μM His-Cbl(TKB)) 85.2 mP; ([…] His-Cbl(TKB)) 25.7 mP.
